EC50 data for 37 compounds are collected here from patent US20240327393A1 (SIRONAX LTD., priority 2021, published 2024).

In general, EC50 refers to the midpoint of the concentration-response curve.

The first experiment deals with HT-1080 (ATCC, CCL-121) cells. Briefly: HT-1080 cell viability assay with ferroptosis inducer RSL3 (Cell Titer-Glo). The class given is cell-based. Conditions: HT-1080 cells treated with RSL3; 3-fold, 10-point dilution, 1.1 μM highest concentration; Table 3; read-out: EC50 (nM), ferroptosis inhibitory activity. The method in brief: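 HT-1080 cells (6000 per well) were cultured overnight at 37 °C, then co-treated with RSL3 and compound in a 3-fold, 10-point series topping at 1.1 μM. Viability was read by CellTiter-Glo luminescence and normalized to untreated controls. EC50 came from a sigmoidal non-linear regression fit.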
(In general: Cellular ATP, detected with luciferase, serves as a proxy for viable cell number.)
On to `Cc1cc(N2CCC(C(F)(F)F)C2)ccc1Nc1ccc2c(c1)OCC(=O)N2` (stereo not shown) [Compound 502, 7-((2-methyl-4-(3-(trifluoromethyl)pyrrolidin-1-yl)phenyl)amino)-2H-benzo[b][1,4]oxazin-3(4H)-one], for which the EC50 lay within 0.1 to 100 nM.

Staying with this experiment, now noted: Homo sapiens; HT-1080 cells treated with RSL3; 3-fold, 10-point dilution, 1.1 μM highest concentration; Table 3; read-out: EC50 (nM), ferroptosis inhibitory activity.
Consider `O=C1COc2cc(Nc3cnc(N4CCC(C(F)(F)F)CC4)nc3)ccc2N1` [Compound 475, 7-((2-(4-(trifluoromethyl)piperidin-1-yl)pyrimidin-5-yl)amino)-2H-benzo[b][1,4]oxazin-3(4H)-one], for which the EC50 lay within 0.1 to 100 nM.

Take `O=C1COc2cc(Nc3ccc(N4CCC(C(F)(F)F)CC4)cn3)ccc2N1` [Compound 476]: the concentration for a half-maximal effect (EC50) was in the range of 0.1 to 100 nM. As to `Cc1cc(N2CCC(C(F)(F)F)CC2)ccc1Nc1cc2c(cc1C)N(C)C(=O)CO2` [Compound 477, 4,6-dimethyl-7-((2-methyl-4-(4-(trifluoromethyl)piperidin-1-yl)phenyl)amino)-2H-benzo[b][1,4]oxazin-3(4H)-one], the half-maximal effective concentration (EC50) fell in the range of 0.1 to 100 nM. For the compound `CC1CC(c2ccc(Nc3ccc4c(c3)OCC(=O)N4)cc2)CCO1` (stereo not shown) [Compound 479, 7-((4-(2-methyltetrahydro-2H-pyran-4-yl)phenyl)amino)-2H-benzo[b][1,4]oxazin-3(4H)-one], the EC50 lay in the range of 0.1 to 100 nM. `Cc1cc(N2CCC(C(F)(F)F)CC2)ccc1Nc1cc(F)c2c(c1)OCC(=O)N2` [Compound 480, 5-fluoro-7-((2-methyl-4-(4-(trifluoromethyl)piperidin-1-yl)phenyl)amino)-2H-benzo[b][1,4]oxazin-3(4H)-one]: the EC50 was 0.1 to 100 nM. Regarding `Cc1cc(Nc2cc(F)c3c(c2)OCC(=O)N3)ccc1N1CCC(C(F)(F)F)CC1` [Compound 481, 5-fluoro-7-((3-methyl-4-(4-(trifluoromethyl)piperidin-1-yl)phenyl)amino)-2H-benzo[b][1,4]oxazin-3(4H)-one], the EC50 is 0.1 to 100 nM. Take `Cc1cc(N2CCC(C(F)(F)F)CC2)ccc1Nc1ccc2c(c1)OC(C)C(=O)N2` (stereo not shown) [Compound 482, 2-methyl-7-((2-methyl-4-(4-(trifluoromethyl)piperidin-1-yl)phenyl)amino)-2H-benzo[b][1,4]oxazin-3(4H)-one]: the EC50 lay in the range of 0.1 to 100 nM. Turning to `CCC1Oc2cc(Nc3ccc(N4CCC(C(F)(F)F)CC4)cc3C)ccc2NC1=O` (stereo not shown) [Compound 483, 2-ethyl-7-((2-methyl-4-(4-(trifluoromethyl)piperidin-1-yl)phenyl)amino)-2H-benzo[b][1,4]oxazin-3(4H)-one], the EC50 is 0.1 to 100 nM. For `C[C@@H]1C[C@H](c2ccc(Nc3ccc4c(c3)OCC(=O)N4)cc2)CCO1` [Compound 484, 7-((4-((2R,4R)-2-methyltetrahydro-2H-pyran-4-yl)phenyl)amino)-2H-benzo[b][1,4]oxazin-3(4H)-one], the EC50 fell in the range of 0.1 to 100 nM. Turning to `COc1cc(Nc2ccc3c(c2)OCC(=O)N3)ccc1N1CCC(C(F)(F)F)CC1` [Compound 485, 7-((3-methoxy-4-(4-(trifluoromethyl)piperidin-1-yl)phenyl)amino)-2H-benzo[b][1,4]oxazin-3(4H)-one], the EC50 fell in the range of 0.1 to 100 nM. On to `O=C1COc2cc(Nc3ccc(N4CCC(C(F)(F)F)CC4)c(F)c3)ccc2N1` [Compound 486, 7-((3-fluoro-4-(4-(trifluoromethyl)piperidin-1-yl)phenyl)amino)-2H-benzo[b][1,4]oxazin-3(4H)-one], for which the concentration giving a half-maximal response (EC50) lay in the range of 0.1 to 100 nM. Consider `Cc1c(Nc2ccc3c(c2)OCC(=O)N3)ccc(N2CCC(C(F)(F)F)CC2)c1C` [Compound 487, 7-((2,3-dimethyl-4-(4-(trifluoromethyl)piperidin-1-yl)phenyl)amino)-2H-benzo[b][1,4]oxazin-3(4H)-one], for which the EC50 was 0.1 to 100 nM.

Regarding `Cc1cc(N2CCC(C(F)(F)F)CC2)c(F)cc1Nc1ccc2c(c1)OCC(=O)N2` [Compound 488, 7-((5-fluoro-2-methyl-4-(4-(trifluoromethyl)piperidin-1-yl)phenyl)amino)-2H-benzo[b][1,4]oxazin-3(4H)-one], the EC50 lay in the range of 0.1 to 100 nM. For `Cc1nc(N2CCC(C(F)(F)F)CC2)ccc1Nc1ccc2c(c1)OCC(=O)N2` [Compound 489, 7-((2-methyl-6-(4-(trifluoromethyl)piperidin-1-yl)pyridin-3-yl)amino)-2H-benzo[b][1,4]oxazin-3(4H)-one], the EC50 was 0.1 to 100 nM. As for `Cc1cc(N2CCC(C)CC2)ccc1Nc1ccc2c(c1)OCC(=O)N2C` [Compound 490, 4-methyl-7-((2-methyl-4-(4-methylpiperidin-1-yl)phenyl)amino)-2H-benzo[b][1,4]oxazin-3(4H)-one], the EC50 was in the range of 0.1 to 100 nM. Regarding `Cc1cc(N2CCC(C)CC2)ccc1Nc1ccc2c(c1)OCC(=O)N2` [Compound 491, 7-((2-methyl-4-(4-methylpiperidin-1-yl)phenyl)amino)-2H-benzo[b][1,4]oxazin-3(4H)-one], the 50% effective concentration (EC50) was in the range of 0.1 to 100 nM. `Cc1c(Nc2ccc3c(c2)OCC(=O)N3C)ccc(N2CCC(C(F)(F)F)CC2)c1C#N` [Compound 492, 2-methyl-3-((4-methyl-3-oxo-3,4-dihydro-2H-benzo[b][1,4]oxazin-7-yl)amino)-6-(4-(trifluoromethyl)piperidin-1-yl)benzonitrile]: the EC50 was 0.1 to 100 nM. Consider `Cc1cc(N2C[C@@H](C)O[C@@H](C)C2)ccc1Nc1ccc2[nH]cnc2c1` [Compound 493, N-(4-((2R,6S)-2,6-dimethylmorpholino)-2-methylphenyl)-1H-benzo[d] imidazol-5-amine], for which the EC50 lay in the range of 0.1 to 100 nM. For the compound `Cc1cc(N2C[C@@H](C)O[C@@H](C)C2)ccc1Nc1ccc2c(c1)CNC(=O)N2` [Compound 494, 6-((4-((2R,6S)-2,6-dimethylmorpholino)-2-methylphenyl)amino)-3,4-dihydroquinazolin-2(1H)-one], the EC50 fell in the range of 0.1 to 100 nM. Turning to `CN1C(=O)COc2cc(Nc3ccc(N4CCC(C(F)(F)F)CC4)cc3)c(O)cc21` [Compound 495, 6-hydroxy-4-methyl-7-({4-[4-(trifluoromethyl)piperidin-1-yl]phenyl}amino)-2H-1,4-benzoxazin-3-one], the EC50 is 0.1 to 100 nM. Regarding `Cc1cc(N2CCC(C(F)(F)F)CC2)ccc1Nc1ccc2[nH]c(=O)oc2c1` [Compound 496, 6-((2-methyl-4-(4-(trifluoromethyl)piperidin-1-yl)phenyl)amino) benzo[d]oxazol-2(3H)-one], the EC50 is 0.1 to 100 nM. Same read-out and setting: the figure for `Cc1cc(N2CCC(C(F)(F)F)CC2)ccc1Nc1ccc2[nH]ncc2c1` [Compound 497, N-(2-methyl-4-(4-(trifluoromethyl)piperidin-1-yl)phenyl)-1H-indazol-5-amine] is 0.1 to 100 nM; for `CCC1CN(c2ccc(Nc3ccc4c(c3)OCC(=O)N4)c(C)n2)CCO1` (stereo not shown) [Compound 498, 7-((6-(2-ethylmorpholino)-2-methylpyridin-3-yl)amino)-2H-benzo[b][1,4]oxazin-3(4H)-one] it is 0.1 to 100 nM; for `CC[C@@H]1CN(c2ccc(Nc3ccc4c(c3)OCC(=O)N4)c(C)n2)C[C@H](CC)O1` [Compound 499, 7-((6-((2S,6R)-2,6-diethylmorpholino)-2-methylpyridin-3-yl)amino)-2H-benzo[b][1,4]oxazin-3(4H)-one] it is 0.1 to 100 nM. For `Cc1nc(N2CCOC(C)(C)C2)ccc1Nc1ccc2c(c1)OCC(=O)N2` [Compound 500, 7-((6-(2,2-dimethylmorpholino)-2-methylpyridin-3-yl)amino)-2H-benzo[b][1,4]oxazin-3(4H)-one], the EC50 is 0.1 to 100 nM. The same measure, in the same setting: to `CCN(CC)c1ccc(Nc2ccc3c(c2)OCC(=O)N3)c(C)c1` [Compound 501, 7-((4-(diethylamino)-2-methylphenyl)amino)-2H-benzo[b][1,4]oxazin-3(4H)-one] belongs 0.1 to 100 nM; to `COC1(C(F)(F)F)CCN(c2ccc(Nc3ccc4c(c3)OCC(=O)N4)c(C)n2)CC1` [Compound 503, 7-((6-(4-methoxy-4-(trifluoromethyl)piperidin-1-yl)-2-methylpyridin-3-yl)amino)-2H-benzo[b][1,4]oxazin-3(4H)-one], 0.1 to 100 nM. As for `Cc1nc(N2CC(C)(C)OC(C)(C)C2)ccc1Nc1ccc2c(c1)OCC(=O)N2` [Compound 504], the concentration giving a half-maximal response (EC50) was 0.1 to 100 nM. With `COCCOC1CCN(c2ccc(Nc3ccc4c(c3)OCC(=O)N4)c(C)c2)CC1` [Compound 505], the EC50 was in the range of 0.1 to 100 nM. Consider `Cc1cc(N2CCCCC2)ccc1Nc1ccc2c(c1)OCC(=O)N2C` [Compound 506], for which the EC50 fell in the range of 0.1 to 100 nM. In the case of `CC1CCN(c2ccc(Nc3ccc4c(c3)OCC(=O)N4)cc2)CC1` [Compound 507, 7-((4-(4-methylpiperidin-1-yl)phenyl)amino)-2H-benzo[b][1,4]oxazin-3(4H)-one], the EC50 is 0.1 to 100 nM. For `O=C1COc2cc(Nc3ccc(N4CCC(F)CC4)cc3)ccc2N1` [Compound 508, 7-((4-(4-fluoropiperidin-1-yl)phenyl)amino)-2H-benzo[b][1,4]oxazin-3(4H)-one], the EC50 lay within 0.1 to 100 nM. Regarding `Cc1cc(N2CCC(O)(C(F)(F)F)CC2)ccc1Nc1ccc2c(c1)OCC(=O)N2` [Compound 509, 7-((4-(4-hydroxy-4-(trifluoromethyl)piperidin-1-yl)-2-methylphenyl)amino)-2H-benzo[b][1,4]oxazin-3(4H)-one], the EC50 fell in the range of 0.1 to 100 nM. In the case of `O=C1COc2cc(Nc3ccc(N4CCC(O)(C(F)(F)F)CC4)cc3)ccc2N1` [Compound 510, 7-((4-(4-hydroxy-4-(trifluoromethyl)piperidin-1-yl)phenyl)amino)-2H-benzo[b][1,4]oxazin-3(4H)-one], the EC50 was in the range of 0.1 to 100 nM. The same measure, in the same setting: to `Cc1cc(N2CCC(O)(C(F)(F)F)CC2)ccc1Nc1cc(C)c2c(c1)OCC(=O)N2` [Compound 511, 7-((4-(4-hydroxy-4-(trifluoromethyl)piperidin-1-yl)-2-methylphenyl)amino)-5-methyl-2H-benzo[b][1,4]oxazin-3(4H)-one] belongs 0.1 to 100 nM; to `Cc1cc(N2CCC(C(F)(F)F)CC2)ccc1Nc1cc2c(cc1C)NC(=O)CO2` [Compound 512, 6-methyl-7-((2-methyl-4-(4-(trifluoromethyl)piperidin-1-yl)phenyl)amino)-2H-benzo[b][1,4]oxazin-3(4H)-one], 0.1 to 100 nM.
